How the values were obtained:
[1] = biological target: T1, UBE2C (endogenous, HCC cells) (Homo sapiens, UniProt O00762); assay: cellular thermal shift assay, Western blot; assay type: cell-based; settings: 20 µM, 24 h
T1 construct: endogenous protein in hepatocellular carcinoma cells, detected by Western blot (anti-UBE2C EPR-23165-31)
T1 sequence (O00762 2-179): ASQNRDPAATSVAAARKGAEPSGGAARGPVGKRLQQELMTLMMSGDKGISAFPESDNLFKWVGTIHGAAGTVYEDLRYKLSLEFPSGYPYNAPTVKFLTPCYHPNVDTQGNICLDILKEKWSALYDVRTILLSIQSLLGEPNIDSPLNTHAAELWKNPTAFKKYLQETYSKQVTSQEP

[2] = biological target: T2, GFP-tagged UBE2C (pcDNA3.1-eGFP-UBE2C) (Homo sapiens, UniProt O00762); assay: CETSA, heated at […] °C for […] min; assay type: cell-based; settings: cells treated with Halorotetin B 24 h before purification
T2 sequence (O00762 2-179): T1 sequence (O00762 2-179)

recombinant human UBE2C [3] = biological target: T3, recombinant human UBE2C (Homo sapiens, UniProt O00762); assay: ubiquitylation kit, ubiquitin chain / E2-Ub formation, Western blot; assay type: biochemical; settings: 37 °C, 4 h; source of E2 not told
T3 sequence (O00762 2-179): T1 sequence (O00762 2-179)

recombinant human UBE2C [4] = biological target: T3, recombinant human UBE2C; assay: surface plasmon resonance, […] Langmuir fit; assay type: binding

## CC(=O)/C=C/C=C(/C)C#CC1=C(C)C[C@@H](O)CC1(C)C [Halorotetin B]
[1]
  cellular thermal shift assay, Western blot: UBE2C exhibited significant thermal stabilization upon Halorotetin B treatment
[2]
  CETSA, heated at 77 °C for 10 min: The thermal stabilization of wide type UBE2C and Ser51‐mutant UBE2C
Recombinant human UBE2C [3]
  ubiquitylation kit, ubiquitin chain / E2-Ub formation, Western blot: Halorotetin B significantly suppressed the enzymatic activity of UBE2C protein
Recombinant human UBE2C [4]
  Kd: 6.71 µM

— paper PMC12948284, “Halorotetin B, A Novel Terpenoid Compound Derived from Marine Ascidian, Suppresses Tumor Growth by Targeting the Cell Cycle Regulator UBE2C” (Advanced Science, 2025)
